This passage reports IC50 and binding rate results from patent US12673041B2, “4-aminobut-2-enamide derivatives and salt thereof” (TAIHO PHARMACEUTICAL CO., LTD., priority 2019, dated 2026).

The target of test [1] is T1, GMPPNP-bound KRAS G12C protein and cRAF RAS-binding domain (cRAF-RBD) (Homo sapiens, UniProt P01116, G12C).
T1 construct: made in house; host or cells: E. coli
As to the kind of experiment: Inhibitory activity on interaction between KRAS G12C and cRAF (Alpha technology). The settings on record: GMPPNP-bound KRAS G12C incubated with compound at 25° C. for 1 hour, then cRAF-RBD, Alpha signal; read-out: IC50. In kind it is biochemical. The essentials: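 GMPPNP-loaded His-KRAS G12C (aa 1-169) preincubated 1 h at 25 °C with compound (pH 7.5 Tris, 1 mM MgCl2, TCEP, Tween 20), then cRAF-RBD (aa 50-132) and Alpha reagents added for 1.5 h at RT. Inhibition scaled between DMSO (0%) and GDP-bound KRAS (100%); IC50 by curve fitting.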

The next test relates to MIA PaCa-2 cells. Briefly: Growth inhibition activity on KRAS-G12C mutant cell line (MIA PaCa-2). In kind it is cell-based. The settings on record: Homo sapiens, 72 h; MIA PaCa-2, 3-day culture, CellTiter-Glo 3D. The method, then: MIA PaCa-2 cells (given by Sumitomo Dainippon Pharma Co., Ltd.), which are a KRAS-G12C mutant human pancreas cancer cell line, were suspended in a 10% fetal bovine serum-containing RPMI1640 medium (manufactured by Fujifilm Wako Pure Chemical Corporation.). The cell suspension was seeded into each well of a 384-well U bottom microplate and cultured in an incubator containing 5% CO2 gas at 37° C. for 1 day. The compounds obtained in the “Preparation of Compounds” section were used as test compounds and were dissolved in DMSO, respectively, and each test compound was diluted with DMSO to give a concentration 500 times the final concentration. The resultant solution of the test compound in DMSO was diluted with the medium used for suspending cells and added to each well of the cell-culture plate to give a DMSO final concentration of 0.2%, followed by culture in an incubator containing 5% CO2 gas at 37° C. for another 3 days. The cell count after 3-day culture in the presence of the test compound was measured using CellTiter-Glo 3D Reagent (manufactured by Promega Corporation). All wells were added with CellTiter-Glo 3D Reagent and mixed for 10 minutes. 30 minutes after mixing, luminescence was measured by a plate reader. The growth inhibition rate was calculated from the following equation, and the concentration of the test compound at which 50% inhibition was achieved (IC50 (nM)) was determined. […] Growth Inhibition Rate (%)=(C−T)/(C)×100 • T: the emission intensity in a well into which a test compound was added. • C: the emission intensity in a well into which a test compound was not added.

Test [2] has as its target Gppcp-bound recombinant K-Ras4B G12C mutant protein (amino acids 1-169, C51S/C80L/C118S) (Homo sapiens, UniProt P01116, C118S/C51S/C80L/G12C). Briefly: KRASG12C binding assay (LC-MS compound binding rate). Particulars: test compound final concentration 0.5 μM, 25° C., 1 hour. An outline of the steps:
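Gppcp-bound K-Ras4B G12C (aa 1-169, C51S/C80L/C118S) at 50 nM in 1×TBS, 0.1 mM TCEP, 0.25 mM MgCl2, 50 μM Gppcp was incubated 1 hour at 25° C with compound at 0.5 μM final. Intact-protein LC-MS gave binding rate as single-adduct signal over total KRAS signal, graded A (≥80%) to E (<20%).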

In the case of `Cn1cnc2c(Cl)c(-c3cccn4c(C(=O)c5ccc(NC(=O)/C=C/CNC(C)(C)C)c(C#N)c5)ccc34)c(Cl)cc21` [Example 55, (E)-4-(tert-butylamino)-N-(2-cyano-4-(8-(4,6-dichloro-1-methyl-1H-benzo[d]imidazol-5-yl)indolizine-3-carbonyl)phenyl)but-2-enamide], the figures for the IC50 (in test [1]; in the test with MIA PaCa-2 cells) were 21 nM and 140 nM, respectively. Moreover, in test [2], the binding rate result was “A (A binding rate of 80% or more is rated “A”)”.
In the case of `CO[C@H]1CC[C@H](NC/C=C/C(=O)Nc2ccc(C(=O)c3csc4c(-c5cc6ncn(C)c6cc5C)cccc34)cc2C#N)CC1` [Example 56, (E)-N-(2-cyano-4-(7-(1,6-dimethyl-1H-benzo[d]imidazol-5-yl)benzo[b]thiophene-3-carbonyl)phenyl)-4-(((1r,4r)-4-methoxycyclohexyl)amino)but-2-enamide], the IC50 (usually the concentration that gives 50% inhibition) came out at 86 nM in test [1] and 350 nM in the test with MIA PaCa-2 cells. Moreover, in test [2], the binding rate entry is “A (A binding rate of 80% or more is rated “A”)”.
The corresponding values for `Cc1cc2c(ncn2C)c(Cl)c1-c1cccn2c(C(=O)c3ccc(NC(=O)/C=C/CNC(C)(C)C)c(C#N)c3)ccc12` [Example 59, (E)-4-(tert-butylamino)-N-(4-(8-(4-chloro-1,6-dimethyl-1H-benzo[d]imidazol-5-yl)indolizine-3-carbonyl)-2-cyanophenyl)but-2-enamide] are 19 nM, 64 nM and “A (A binding rate of 80% or more is rated “A”)”.
Consider `CO[C@H]1CC[C@H](NC/C=C/C(=O)Nc2ccc(C(=O)c3ccc4c(-c5c(C)cc6c(ncn6C)c5Cl)cccn34)cc2C#N)CC1` [Example 60, (E)-N-(4-(8-(4-chloro-1,6-dimethyl-1H-benzo[d]imidazol-5-yl)indolizine-3-carbonyl)-2-cyanophenyl)-4-(((1r,4r)-4-methoxycyclohexyl)amino)but-2-enamide], for which the IC50 in test [1] came to 20 nM; in the test on MIA PaCa-2 cells it was 59 nM. In addition, the binding rate entry in test [2] is “A (A binding rate of 80% or more is rated “A”)”.
Turning to `CO[C@H]1CC[C@H](NC/C=C/C(=O)Nc2ccc(C(=O)c3ccc4c(-c5c(C)cc6c(ncn6C)c5C(C)C)cccn34)cc2C#N)CC1` [Example 64, (E)-N-(2-cyano-4-(8-(4-isopropyl-1,6-dimethyl-1H-benzo[d]imidazol-5-yl)indolizine-3-carbonyl)phenyl)-4-(((1r,4r)-4-methoxycyclohexyl)amino)but-2-enamide], the half-inhibitory concentration (IC50) in test [1] amounted to 82 nM; in the test on MIA PaCa-2 cells, 69 nM. Further, the binding rate entry in test [2] is listed as “A (A binding rate of 80% or more is rated “A”)”.
Turning to `CN(C)C/C=C/C(=O)Nc1ccc(C(=O)c2ccc3c(-c4cc5ncn(C)c5cc4C(F)(F)F)cccn23)cc1C#N` [Example 66, (E)-N-(2-cyano-4-(8-(1-methyl-6-(trifluoromethyl)-1H-benzo[d]imidazol-5-yl)indolizine-3-carbonyl)phenyl)-4-(dimethylamino)but-2-enamide], the IC50 was 84 nM in test [1] and 240 nM in the test with MIA PaCa-2 cells. In test [2], the binding rate result is “C (a binding rate of 40% or more and less than 60% is rated “C”)”.
For the compound `Cn1cnc2cc(-c3cccn4c(C(=O)c5cc(F)c(NC(=O)/C=C/CNC(C)(C)C)c(F)c5)cnc34)c(C(F)(F)F)cc21` [Example 67, (E)-4-(tert-butylamino)-N-(2,6-difluoro-4-(8-(1-methyl-6-(trifluoromethyl)-1H-benzo[d]imidazol-5-yl)imidazo[1,2-a]pyridine-3-carbonyl)phenyl)but-2-enamide], the results for the IC50 (in test [1]; in the test on MIA PaCa-2 cells) were 63 nM and 560 nM, respectively. The binding rate entry in test [2] was “B (a binding rate of 60% or more and less than 80% is rated “B”)”.
In the case of `CO[C@H]1CC[C@H](NC/C=C/C(=O)Nc2c(F)cc(C(=O)c3cnc4c(-c5cc6ncn(C)c6cc5C(F)(F)F)cccn34)cc2F)CC1` [Example 68, (E)-N-(2,6-difluoro-4-(8-(1-methyl-6-(trifluoromethyl)-1H-benzo[d]imidazol-5-yl)imidazo[1,2-a]pyridine-3-carbonyl)phenyl)-4-(((1r,4r)-4-methoxycyclohexyl)amino)but-2-enamide], the IC50 came to 57 nM in test [1] and 240 nM in the test with MIA PaCa-2 cells. Also, the binding rate result in test [2] is “B (a binding rate of 60% or more and less than 80% is rated “B”)”.
With `CO[C@H]1CC[C@H](NC/C=C/C(=O)Nc2c(F)cc(C(=O)c3ccc4c(-c5cc6ncn(C)c6cc5C(F)(F)F)cccn34)cc2F)CC1` [Example 70, (E)-N-(2,6-difluoro-4-(8-(1-methyl-6-(trifluoromethyl)-1H-benzo[d]imidazol-5-yl)indolizine-3-carbonyl)phenyl)-4-(((1r,4r)-4-methoxycyclohexyl)amino)but-2-enamide], the IC50 came to 27 nM in test [1] and 72 nM in the test with MIA PaCa-2 cells. Besides, the binding rate entry in test [2] is recorded as “A (A binding rate of 80% or more is rated “A”)”.
In the case of `Cc1cc2c(cc1-c1cccn3c(C(=O)c4cc(F)c(NC(=O)/C=C/CNC(C)(C)C)c(F)c4)ccc13)ncn2C` [Example 72, (E)-4-(tert-butylamino)-N-(4-(8-(1,6-dimethyl-1H-benzo[d]imidazol-5-yl)indolizine-3-carbonyl)-2,6-difluorophenyl)but-2-enamide], the results for the IC50 (in test [1]; with MIA PaCa-2 cells) were 34 nM and 200 nM, respectively. In test [2], the binding rate result was “A (A binding rate of 80% or more is rated “A”)”.
As to `CO[C@H]1CC[C@H](NC/C=C/C(=O)Nc2c(F)cc(C(=O)c3ccc4c(-c5cc6ncn(C)c6cc5C)cccn34)cc2F)CC1` [Example 73, (E)-N-(4-(8-(1,6-dimethyl-1H-benzo[d]imidazol-5-yl)indolizine-3-carbonyl)-2,6-difluorophenyl)-4-(((1r,4r)-4-methoxycyclohexyl)amino)but-2-enamide], the half-inhibitory concentration (IC50) is 32 nM in test [1] and 280 nM in the test with MIA PaCa-2 cells. The binding rate result in test [2] is “A (A binding rate of 80% or more is rated “A”)”.
In the case of `CO[C@H]1CC[C@H](N(C)C/C=C/C(=O)Nc2ccc(C(=O)c3ccc4c(-c5cc6ncn(C)c6cc5C(F)(F)F)cccn34)cc2C#N)CC1` [Example 78, (E)-N-(2-cyano-4-(8-(1-methyl-6-(trifluoromethyl)-1H-benzo[d]imidazol-5-yl)indolizine-3-carbonyl)phenyl)-4-(((1r,4r)-4-methoxycyclohexyl)(methyl)amino)but-2-enamide], the IC50 in test [1] was determined as 96 nM; with MIA PaCa-2 cells, 400 nM. The binding rate entry in test [2] was “C (a binding rate of 40% or more and less than 60% is rated “C”)”.
In the case of `CO[C@H]1CC[C@H](NC/C=C/C(=O)Nc2ccc(C(=O)c3cnc4c(-c5cc6ncn(C)c6cc5C(F)(F)F)cccn34)cc2C#N)CC1` [Example 80, (E)-N-(2-cyano-4-(8-(1-methyl-6-(trifluoromethyl)-1H-benzo[d]imidazol-5-yl)imidazo[1,2-a]pyridine-3-carbonyl)phenyl)-4-(((1r,4r)-4-methoxycyclohexyl)amino)but-2-enamide], the results for the IC50 (in test [1]; with MIA PaCa-2 cells) were 27 nM and 190 nM, respectively. For the same compound, in test [2], the binding rate entry is reported as “A (A binding rate of 80% or more is rated “A”)”.
For `COc1cc2c(cc1-c1cccn3c(C(=O)c4ccc(NC(=O)/C=C/CN[C@H]5CC[C@H](OC)CC5)c(C#N)c4)ccc13)ncn2C` [Example 81, (E)-N-(2-cyano-4-(8-(6-methoxy-1-methyl-1H-benzo[d]imidazol-5-yl)indolizine-3-carbonyl)phenyl)-4-(((1r,4r)-4-methoxycyclohexyl)amino)but-2-enamide] the same measures were 21 nM, 70 nM and “A (A binding rate of 80% or more is rated “A”)”.
